“Also recorded” adds a separate entry of the source.

Experiment [1] concerns mouse ES cells (Pdx1/GFP). The experiment in a line: Differentiation of mouse ES cells into insulin positive cells on nano fiber plate, immunostaining and quantitative image analysis. It is filed as cell-based. Particulars: for effect on differentiation into insulin-expressing cells: compound added d11-d17, insulin staining d17 (FIG. 4, 5, 7, 8, 10). The source says: Two ES cell lines, one expressing green fluorescent protein (GFP) under the control of insulin 1 promoter, designed ING (Higuchi Y., Shiraki N., Yamane K, Qin Z., Mochitate K., Araki K., Senokuchi K., Yamagata K., Hara M., Kume K., and Kume S., Synthesized basement membranes direct the differentiation of mouse embryonic stem cells into pancreatic lineages. J. Cell Science, 123, 2733-2742, 2010), and the other one expressing GFP under the control of Pdx1 promoter, designated SK7 (Shiraki N, Yoshida T, Araki K, et al. Guided differentiation of embryonic stem cells into Pdx1-expressing regional-specific definitive endoderm. Stem Cells. 2008; 26:874-885), were used. Both cell lines were maintained on mouse embryonic fibroblast (MEF) feeders in Glasgow minimum essential medium (Invitrogen) containing 1000 units/ml leukemia inhibitory factor (LIF; Chemicon), 15% Knocked-out Serum Replacement (KSR; Gibco), 1% fetal bovine serum (FBS; Hyclone), 100 μM nonessential amino acids (NEAA; Invitrogen), 2 mM L-glutamine (L-Gln; Invitrogen), 1 mM sodium pyruvate (Invitrogen), 50 units/ml penicillin and 50 μg/ml streptomycin (PS; Invitrogen) and 100 μM β-mercaptoethanol (β-ME; Sigma), as ES maintenance medium.
For the differentiation studies, ES cells were plated at 5,000 cells per well in Corning 96 well plate with Ultra-Web Synthetic Polyamine Surface (#3873XX1, Corning Coster, Cambridge, Miss.), and cultured. The cells were cultured in Dulbecco's Modified Eagle Medium (DMEM: Invitrogen, Glasgow, UK) containing 4500 mg/L glucose, supplemented with NEAA, L-Gln, PS, β-ME, 10 μg/ml insulin (Sigma-Aldrich), 5.5 μg/ml transferrin (Sigma-Aldrich), 6.7 pg/ml selenium (Sigma-Aldrich), and 0.25% Albmax (Invitrogen), 10 ng/mL recombinant human activin-A (R&D Systems, Minneapolis, Minn.), 5 ng/mL; recombinant human bFGF for 7 days (d1-d7) (I of FIG. 1). And then, the medium was changed to RPMI 1640 medium (Invitrogen) containing 2000 mg/L glucose (Sigma, St Louis, Mo.), 1 μM Retinoic acid (Sigma-Aldrich), 50 ng/ml Human Recombinant Fibroblast Growth Factor-10 (Peprotech, Rocky Hill, N.J.), B27 SUPPLEMENT (Invitrogen) and 0.25 μM 3-Keto-N-(aminoethyl-aminocaproyl-dihydrocinnamoyl) cyclopamine Shh Signaling Antagonist II (Calbiochem, San Diego, Calif.) on d7 to d11 (II of FIG. 1). Finally, the medium was switched to DMEM containing 1000 mg/L glucose supplemented with NEAA, L-Gln, PS, β-ME, 10 μg/ml insulin (Sigma-Aldrich), 5.5 μg/ml transferrin (Sigma-Aldrich), 6.7 pg/ml selenium (Sigma-Aldrich), 0.25% Albmax (Invitrogen) and 10 mM nicotinamide (Sigma-Aldrich) on d11 to d17 (III of FIG. 1). Media were replaced every 2 days with fresh medium and growth factors until d17.
All tested small chemical compounds were solved in dimethyl sulfoxide (DMSO) at given concentration. Compounds were added on d11, d13 and d15 in a medium. Final concentration of DMSO was adjusted at 1.0% in all experiments for compounds.
After 17 days cell culture, cultured ES cells were fixed in 4% paraformaldehyde in PBS for 30 min at room temperature, and rinsed several times with PBS. Then, cells were incubated in the added diluted primary antibody in 20% Blocking One (Nacalai tesque, Tokyo, Japan) in PEST (0.1% Tween-20 in PBS) in a humidified chamber for overnight at 4° C. After washing the cells in PBST, cells were incubated with the secondary antibody in 20% Blocking One for 2 hr at room temperature in dark. After washing off the secondary antibody in PBST, cells were counterstained with […] (DAPI) (Roche Diagnostics). The following antibodies were used as First antibodies: Rabbit anti-GFP (MBL International Corp., Woburn, Mass.), Mouse anti-Insulin (Sigma). The following antibodies were used as Secondary antibodies: Alexa 568-conjugated, Alexa 488-conjugated antibodies (Invitrogen) Cells were counterstained with DAPI (Roche Diagnotics, Basel, Switzerland).

Another experiment deals with Drd2KD cells. The experiment in a line: Differentiation into insulin-producing cells in dopamine D2 receptor knock-down cell line. The format is cell-based, mouse. The following applies: 0.63 μM reserpine, Drd2KD cells (FIG. 9B). Here is the method:
In the Vmat2-knockdown and Drd2-knockdown assays, Expression Arrest non-silencing control shRNA (Open Biosystems, #RHS4080), Vmat2 hRNA (Open Biosystems, #RMM3981-97058457 and #RMM3981-97058458) or Drd2 hRNA (Open Biosystems, #RMM3981-9594258) lentiviral vectors were used. For virus preparation, HEK293-FT cells (Invitrogen) were seeded on a plate medium the day before transfection. After overnight culture, the cells were transfected with lentiviral vectors and ViraPower™ Lentiviral Packaging Mix (Invitrogen) using FuGENE6 Transfection Reagent (Roche) according to the manufacturer's protocol. Cells were incubated in the ES maintenance medium for 24 hours, and viral supernatants were collected. Then, SK7 cells were infected with the viral supernatants. After incubation for 24 hours, the virus-containing medium was replaced with fresh ES maintenance medium. Further 24 hours later, the infected cells were selected using […] puromycin. The surviving cells were cloned as a knockdown-cell lines.
To confirm that a dopamine signal suppresses the differentiation into insulin-expressing cells through activation of its receptor, a dopamine D2 receptor knock-down cell line, Drd2KD was established (FIG. 9A).

For another experiment, the system named is Ngn3/GFP mouse ES cells. The experiment in a line: Ngn3 positive cell inducing rate. The format is cell-based. Here is the method:
The influence exerted on the Ngn3 positive cell inducing rate by addition of TBZ (2.5 μM) or dBu-cAMP (0.6 μM) was confirmed. FIG. 16A is a view schematically showing the addition periods of TBZ or dBu-cAMP, and the addition periods are a) on days 9 to 11 of culture, b) on days 11 to 13 of culture, and c) on days 9 to 13 of culture.
First, the compound was not added or TBZ was added on days 9 to 13 of culture (period c), and visible light photographs and fluorescence of Ngn3/GFP mouse ES cells were observed on day 13 of culture. The left one is a visible light photograph and the right one is fluorescence.
Next, the compound was not added, or TBZ or dBu-cAMP was added under the above-described conditions a), b) and c), and the proportion of GFP positive cells on day 13 of culture was checked. The ratios of the proportions of GFP positive cells and Ngn3 positive cells when the ratio in the case of no addition is 1 are shown in FIG. 16C. […] The order of intensity of the effect was a), c), b) in descending order.

Experiment [2] relates to differentiated ES cells. The experiment in a line: Secreted insulin and cellular insulin content by mouse c-peptide ELISA. The format is cell-based. Particulars: TBZ 2.5 μM, dBu-cAMP 0.6 μM, day 11 to 17; sorted GFP positive cells day 17 (FIG. 18D). In general terms: In an ELISA, binding on a coated surface is turned into a signal by an enzyme label.
The test system of experiment [3] is differentiated ES cells. In words: Real time PCR of gene expression in differentiated ES cells. It is filed as cell-based, mouse. Particulars: TBZ 2.5 μM.

In the case of `COC(=O)[C@H]1[C@H]2C[C@@H]3c4[nH]c5cc(OC)ccc5c4CCN3C[C@H]2C[C@@H](OC(=O)c2cc(OC)c(OC)c(OC)c2)[C@@H]1OC` [Reserpine, reserpine], in experiment [1] (0.08 to 10 μM, SK7 ES cells), the “hit confirmed by dose-responsiveness” value is “positive”. The entries for the “effect on differentiation into insulin-expressing cells” value in experiment [1] and in experiment [1] (listed as reserpine) were “enhanced insulin-positive staining; also recorded: increased insulin-producing cells” and “concentration-dependent effect was observed”, respectively. In experiment [1] (concentration-dependent test at 0 to 10 μM (FIG. 4)), the “concentration of maximum effect on insulin positive cells” value is 0.63 µM. For the same compound, the “effect on Pdx1 positive pancreatic precursor cells” value in experiment [1] (reserpine 0.63 μM, Pargyline 1 μM (FIG. 6, 7)) is “did not change the number of pancreatic precursor cells”. In addition, in the experiment on Drd2KD cells, the “promotion of differentiation into insulin-producing cells” value is “did not promote differentiation”.
`COc1cc2c(cc1OC)C1CC(=O)C(CC(C)C)CN1CC2` (stereo not drawn) [Tetrabenazine, tetrabenazine]: the “Ngn3 positive cells (fluorescence)” value in the experiment on Ngn3/GFP mouse ES cells (TBZ 2.5 μM on days 9 to 13, observed day 13 (FIG. 16B)) is “increase of Ngn3 positive cells”. In addition, the “number of GFP positive cells” value with Ngn3/GFP mouse ES cells (TBZ 2.5 μM or dBu-cAMP 0.6 μM, addition days 9-11, 11-13 or 9-13, day 13 (FIG. 16C)) was “increased in all conditions”. Moreover, the “effect on differentiation into insulin-expressing cells” value in experiment [1] is given as “promoted the differentiation into insulin-expressing cells”. Besides, in the experiment with differentiated ES cells [2], the “C-peptide content of GFP positive cells” value is “increased”. In addition, in the experiment with differentiated ES cells [3] (dBu-cAMP 0.6 μM (FIG. 13)), the “expression of Abcc8” value is “did not increase”, the “expression of Glut2” value is given as “did not increase”, the “expression of MafA” value is recorded as “increased slightly” and the “expression of Stx1” value is reported as “increased slightly”. Moreover, in the experiment on differentiated ES cells [3] (dBu-cAMP 0.6 μM from day 11, after day 13 (FIG. 15)), the “expression level of MafA, time course” value is recorded as “promoted”. In addition, the “expression level of Nkx6.1” value in the experiment with differentiated ES cells [3] (dBu-cAMP 0.6 μM from day 11, after day 15 (FIG. 15)) is “strongly promoted”. Besides, in the experiment on differentiated ES cells [3] (dBu-cAMP 0.6 μM from day 11, day 13 and day 15 (FIG. 15)), the “expression level of Ngn3” value is “increased remarkably”. In addition, the “expression level of Insulin1” value with differentiated ES cells [3] (dBu-cAMP 0.6 μM from day 11, single after day 13, both after day 15 (FIG. 15)) was “promoted”.
